Laboratory results as given in patent publication US20230339900A1, “CASEIN KINASE 1 DELTA MODULATORS” (Janssen Pharmaceutica NV, priority 2020, published 2023).

What was measured:
[1] = biological target: human CSNK1D tagged with nanoluciferase (Homo sapiens (Human), UniProt P48730); assay: Whole Cell nBRET CSNK1D Binding Assay; settings: living CHO cells stably expressing human CSNK1D-nanoluciferase; NanoBret tracer 130 nM; 2 hours 37° C.; read-out: CSNK1D BRET IC50
Procedure: This cellular binding assay uses a bioluminescence resonance energy transfer to measure human CSNK1D binding activity in living Chinese Hamster Ovary (CHO) cells that are stably expressing human CSNK1D tagged with nanoluciferase. The cells were grown to confluency in growth media (DMEM:F12, 50 u/mLPen/Strep, […] glutamine, and 0.6 mg/mL G418) in 10 cm^2 dishes. Cells were seeded onto white, opaque 384-well plates (Corning, cat #3704) at a density of 8,000 cells/well in serum-free OptiMEM and left to incubated overnight at 37° C., […]. The next day, test compounds were added in a dose response to the plate followed by a NanoBret tracer (130 nM). The plate is mixed on an orbital shaker for 30 seconds, then placed in a 37° C. incubator for 2 hours. NanoBret Nano-Glo Substrate solution (20 μL) is added to all wells and incubated for 3 minutes at room temperature. Donor (450 nm) and acceptor (630 nm) emissions are then measured within 10 minutes using a ClarioStar plate reader. The data is used to calculate millibret units, defined as (E630/E450)*1000. Bret emissions are then graphed against the log of compound concentrations and these graphs are used to determine the IC50 of each compound.

[2] = biological target: human recombinant GST cleaved CSNK1D (Homo sapiens (Human), UniProt P48730); assay: Purified enzyme assay (ADP-Glo Kinase Assay); format: biochemical; settings: 2 nM CSNK1D, peptide substrate 150 μM, ATP 20 μM, 45 minutes room temperature
Procedure: In this assay, CSNK1D phosphorylates a substrate peptide PLSRTL-pS-VASLPGL in the presence of ATP. […] This assay monitors CSNK1D kinase activity by measuring the amount of ADP produced in the assay. A substrate mix is prepared by diluting peptide substrate (final concentration 150 μM) with ATP (final concentration 20 μM) in assay buffer (50 mM Tris/HCl pH 7.4+10 mM MgCl2+1 mM DTT+0.1% BSA). The substrate mix is added to each well of a low volume, 384-well, white opaque plate. Test compounds were diluted in HBSS and added in a dose-response to the plate. To start the reaction, 2 nM of constitutively active human recombinant GST cleaved CSNK1D (University of Dundee, clone DU 19064, stored at 0.28 mg/mL in 50 mM Tris/HCl pH 7.5, 150 mM NaCl, 270 mM Sucrose, 0.1 mM EGTA, 0.1% 2-mercaptoethanol, 0.02% Brij-35.1 mM benzamidine, 0.2 mM PMSF) was added to each well and the plate centrifuged for 5 minutes at 1500 rpm. The total volume of each reaction is 5 ul (2 μL of substrate mix, 1 μL of diluted compounds, and 2 μL of human recombinant CSNK1D). The plates are incubated for 45 minutes at room temperature.
ADP was quantified using the ADP-Glo™ Kinase Assay. ADP-Glo Reagent (5 μL) was added to each well. After a 1 hour incubation at room temperature, Kinase Detection Reagent (10 μL) was added to each well and incubated for 30 minutes. Luminescence was measured on the Perkin Elmer Wallac EnVision 2104 Multi-label Reader. The raw data from the Envision is used to calculate percent activity.

Chain of human CSNK1D tagged with nanoluciferase (P48730 whole entry): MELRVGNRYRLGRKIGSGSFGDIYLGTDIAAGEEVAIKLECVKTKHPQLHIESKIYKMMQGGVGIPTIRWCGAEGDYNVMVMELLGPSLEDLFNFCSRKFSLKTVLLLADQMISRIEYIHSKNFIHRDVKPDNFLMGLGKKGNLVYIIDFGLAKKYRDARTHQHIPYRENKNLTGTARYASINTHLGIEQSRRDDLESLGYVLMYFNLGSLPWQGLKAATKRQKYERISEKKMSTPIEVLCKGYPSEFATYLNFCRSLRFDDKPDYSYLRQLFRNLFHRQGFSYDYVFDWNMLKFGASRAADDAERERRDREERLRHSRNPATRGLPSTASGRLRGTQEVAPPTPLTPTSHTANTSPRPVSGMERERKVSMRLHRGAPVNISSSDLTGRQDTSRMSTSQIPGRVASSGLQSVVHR
Chain of human recombinant GST cleaved CSNK1D (P48730 whole entry): as above

IC50 [1]	AC50 [2]	Compound
186 nM	7 nM	Cn1cc(-c2ccnc3[nH]ccc23)c(-c2cccc(F)n2)n1 [Example 29, 4-[3-(6-Fluoro-2-pyridyl)-1-methyl-pyrazol-4-yl]-1H-pyrrolo[2,3-b]pyridine]
388 nM	24 nM	Cc1cccc(-c2nn(C)cc2-c2cc(C)nc3[nH]ncc23)n1 [Example 30, 6-Methyl-4-(1-methyl-3-(6-methylpyridin-2-yl)-1H-pyrazol-4-yl)-1H-pyrazolo[3,4-b]pyridine]
3120 nM	50 nM	Cc1ccc(-c2nn(C)cc2-c2ccnc3[nH]ccc23)nc1 [Example 31, 4-[1-Methyl-3-(5-methyl-2-pyridyl)pyrazol-4-yl]-1H-pyrrolo[2,3-b]pyridine]
8940 nM	128 nM	Cc1ccc(-c2nn(C)cc2-c2ccnc3[nH]ncc23)nc1 [Example 32, 4-(1-Methyl-3-(5-methylpyridin-2-yl)-1H-pyrazol-4-yl)-1H-pyrazolo[3,4-b]pyridine]
17800 nM	317 nM	Cn1cc(-c2ccnc3[nH]ncc23)c(-c2ccc(C(F)F)cn2)n1 [Example 33, 4-(3-(5-(Difluoromethyl)pyridin-2-yl)-1-methyl-1H-pyrazol-4-yl)-1H-pyrazolo[3,4-b]pyridine]
1980 nM	100 nM	COc1cccc(-c2nn(C)cc2-c2cc(C)nc3[nH]ncc23)n1 [Example 34, 4-(3-(6-Methoxypyridin-2-yl)-1-methyl-1H-pyrazol-4-yl)-6-methyl-1H-pyrazolo[3,4-b]pyridine]
> 10000 nM	9180 nM	Cn1cc(-c2ccnc3[nH]ccc23)c(-c2ccc(OC(F)F)cn2)n1 [Example 35, 4-[3-[5-(Difluoromethoxy)-2-pyridyl]-1-methyl-pyrazol-4-yl]-1H-pyrrolo[2,3-b]pyridine]
> 10000 nM	6480 nM	Cn1cc(-c2ccnc3[nH]ccc23)c(-c2ccc(OC(F)(F)F)cn2)n1 [Example 36, 4-[1-Methyl-3-[5-(trifluoromethoxy)-2-pyridyl]pyrazol-4-yl]-1H-pyrrolo[2,3-b]pyridine]
78 nM	15 nM	Cn1cc(-c2ccnc3[nH]ccc23)c(-c2ncc(F)cc2F)n1 [Example 37, 4-[3-(3,5-Difluoro-2-pyridyl)-1-methyl-pyrazol-4-yl]-1H-pyrrolo[2,3-b]pyridine]
390 nM	46 nM	Cn1cc(-c2ccnc3[nH]ncc23)c(-c2ncc(F)cc2F)n1 [Example 38, 4-(3-(3,5-Difluoropyridin-2-yl)-1-methyl-1H-pyrazol-4-yl)-1H-pyrazolo[3,4-b]pyridine]
3250 nM	128 nM	Cc1cc(-c2cn(C)nc2-c2ccc(Cl)c(C)n2)c2cn[nH]c2n1 [Example 39, 4-(3-(5-Chloro-6-methylpyridin-2-yl)-1-methyl-1H-pyrazol-4-yl)-6-methyl-1H-pyrazolo[3,4-b]pyridine]
288 nM	19 nM	Cc1cc(-c2cn(C)nc2-c2ccc(F)c(C)n2)c2cn[nH]c2n1 [Example 40, 4-(3-(5-Fluoro-6-methylpyridin-2-yl)-1-methyl-1H-pyrazol-4-yl)-6-methyl-1H-pyrazolo[3,4-b]pyridine]
5000 nM	107 nM	COc1nc(-c2nn(C)cc2-c2cc(C)nc3[nH]ncc23)ccc1F [Example 41, 4-(3-(5-Fluoro-6-methoxypyridin-2-yl)-1-methyl-1H-pyrazol-4-yl)-6-methyl-1H-pyrazolo[3,4-b]pyridine]
2770 nM	134 nM	COc1nc(-c2nn(C)cc2-c2cc(C)nc3[nH]ncc23)ccc1Cl [Example 42, 4-(3-(5-Chloro-6-methoxypyridin-2-yl)-1-methyl-1H-pyrazol-4-yl)-6-methyl-1H-pyrazolo[3,4-b]pyridine]
268 nM	31 nM	Cn1cc(-c2ccnc3[nH]ccc23)c(-c2ncc(F)cn2)n1 [Example 43, 4-[3-(5-Fluoropyrimidin-2-yl)-1-methyl-pyrazol-4-yl]-1H-pyrrolo[2,3-b]pyridine]
469 nM	54 nM	Cn1cc(-c2ccnc3[nH]ccc23)c(-c2ccncn2)n1 [Example 44, 4-(1-Methyl-3-pyrimidin-4-yl-pyrazol-4-yl)-1H-pyrrolo[2,3-b]pyridine]

IC50 [1]	AC50 [2]	Compound
> 10000 nM	746 nM	Cn1cc(-c2ccnc3[nH]ccc23)c(-c2cncnc2)n1 [Example 45, 4-(1-Methyl-3-pyrimidin-5-yl-pyrazol-4-yl)-1H-pyrrolo[2,3-b]pyridine]
2190 nM	84 nM	Cn1cc(-c2ccnc3[nH]ccc23)c(-c2cnccn2)n1 [Example 46, 4-(1-Methyl-3-pyrazin-2-yl-pyrazol-4-yl)-1H-pyrrolo[2,3-b]pyridine]
> 10000 nM	346 nM	Cc1cnc(-c2nn(C)cc2-c2ccnc3[nH]ccc23)cn1 [Example 47, 4-[1-Methyl-3-(5-methylpyrazin-2-yl)pyrazol-4-yl]-1H-pyrrolo[2,3-b]pyridine]
3470 nM	39 nM	Cn1cc(-c2ccnc3[nH]ccc23)c(-c2cccnn2)n1 [Example 48, 4-(1-Methyl-3-pyridazin-3-yl-pyrazol-4-yl)-1H-pyrrolo[2,3-b]pyridine]
> 10000 nM	451 nM	Cn1cc(-c2ccnc3[nH]ccc23)c(-c2ccnnc2)n1 [Example 49, 4-(1-Methyl-3-pyridazin-4-yl-pyrazol-4-yl)-1H-pyrrolo[2,3-b]pyridine]
122 nM	5 nM	Cc1cc(-c2cn(CC3COC3)nc2-c2ccc(F)cn2)c2cn[nH]c2n1 [Example 50, 4-[3-(5-Fluoro-2-pyridyl)-1-(oxetan-3-ylmethyl)pyrazol-4-yl]-6-methyl-1H-pyrazolo[3,4-b]pyridine]
28 nM	5 nM	Cc1c(-c2ccnc3[nH]ccc23)c(-c2ccc(F)cn2)nn1C [Example 51, 4-(3-(5-Fluoropyridin-2-yl)-1,5-dimethyl-1H-pyrazol-4-yl)-1H-pyrrolo[2,3-b]pyridine]
227 nM	13 nM	Cn1nc(-c2ccc(F)cn2)c(-c2ccnc3[nH]ccc23)c1C1CCC1 [Example 52, 4-(5-Cyclobutyl-3-(5-fluoropyridin-2-yl)-1-methyl-1H-pyrazol-4-yl)-1H-pyrrolo[2,3-b]pyridine]
359 nM	68 nM	Cn1cc(-c2ccnc3[nH]ccc23)c(-c2cccnc2)n1 [Example 53, 4-[1-Methyl-3-(3-pyridyl)pyrazol-4-yl]-1H-pyrrolo[2,3-b]pyridine]
93 nM	7 nM	CCn1cc(-c2ccnc3[nH]ccc23)c(-c2ccc(F)cn2)n1 [Example 55, 4-[1-Ethyl-3-(5-fluoro-2-pyridyl)pyrazol-4-yl]-1H-pyrrolo[2,3-b]pyridine]
205 nM	5 nM	CCn1cc(-c2ccnc3[nH]ncc23)c(-c2ccc(F)cn2)n1 [Example 56, 4-(1-Ethyl-3-(5-fluoropyridin-2-yl)-1H-pyrazol-4-yl)-1H-pyrazolo[3,4-b]pyridine]
219 nM	14 nM	CCn1cc(-c2cc(C)nc3[nH]ncc23)c(-c2ccc(F)cn2)n1 [Example 57, 4-(1-Ethyl-3-(5-fluoropyridin-2-yl)-1H-pyrazol-4-yl)-6-methyl-1H-pyrazolo[3,4-b]pyridine]
97 nM	17 nM	CC(C)n1cc(-c2ccnc3[nH]ccc23)c(-c2ccc(F)cn2)n1 [Example 58, 4-[3-(5-Fluoro-2-pyridyl)-1-isopropyl-pyrazol-4-yl]-1H-pyrrolo[2,3-b]pyridine]
326 nM	44 nM	CC(C)n1cc(-c2ccnc3[nH]ncc23)c(-c2ccc(F)cn2)n1 [Example 59, 4-(3-(5-Fluoropyridin-2-yl)-1-isopropyl-1H-pyrazol-4-yl)-1H-pyrazolo[3,4-b]pyridine]
372 nM	11 nM	Cc1cc(-c2cn(C(C)C)nc2-c2ccc(F)cn2)c2cn[nH]c2n1 [Example 60, 4-(3-(5-Fluoropyridin-2-yl)-1-isopropyl-1H-pyrazol-4-yl)-6-methyl-1H-pyrazolo[3,4-b]pyridine]
